Measured values: the NIST ThermoML archive (doi:10.1016/j.fluid.2014.12.001)
Numbers after ± are expanded uncertainties.

Experiments:
[1] = Crystal; visual observation
[2] = Molar enthalpy of transition or fusion; details: Crystal; DSC

| SMILES | Normal melting temperature [1] | Molar enthalpy of transition or fusion [2] |
| --- | --- | --- |
| Oc1cccc2ccccc12 [1-naphthol] | 95.10 ± 1.1 °C | 5.2 ± 0.237 kcal/mol |
| Nc1ccccc1[N+](=O)[O-] [2-nitroaniline] | 69.7 ± 1.1 °C | 4.6 ± 0.21 kcal/mol |
